The target in test [1] is T1, PfPSH2 (Plasmodium falciparum, UniProt A0A1Q1G9G0).
T1 construct: gene PSH2; full length, 880 residues, ~105 kDa, His-tagged (pET28a+), expressed in E. coli BL21 codon Plus, Ni-NTA purified
T1 sequence (A0A1Q1G9G0 1-880): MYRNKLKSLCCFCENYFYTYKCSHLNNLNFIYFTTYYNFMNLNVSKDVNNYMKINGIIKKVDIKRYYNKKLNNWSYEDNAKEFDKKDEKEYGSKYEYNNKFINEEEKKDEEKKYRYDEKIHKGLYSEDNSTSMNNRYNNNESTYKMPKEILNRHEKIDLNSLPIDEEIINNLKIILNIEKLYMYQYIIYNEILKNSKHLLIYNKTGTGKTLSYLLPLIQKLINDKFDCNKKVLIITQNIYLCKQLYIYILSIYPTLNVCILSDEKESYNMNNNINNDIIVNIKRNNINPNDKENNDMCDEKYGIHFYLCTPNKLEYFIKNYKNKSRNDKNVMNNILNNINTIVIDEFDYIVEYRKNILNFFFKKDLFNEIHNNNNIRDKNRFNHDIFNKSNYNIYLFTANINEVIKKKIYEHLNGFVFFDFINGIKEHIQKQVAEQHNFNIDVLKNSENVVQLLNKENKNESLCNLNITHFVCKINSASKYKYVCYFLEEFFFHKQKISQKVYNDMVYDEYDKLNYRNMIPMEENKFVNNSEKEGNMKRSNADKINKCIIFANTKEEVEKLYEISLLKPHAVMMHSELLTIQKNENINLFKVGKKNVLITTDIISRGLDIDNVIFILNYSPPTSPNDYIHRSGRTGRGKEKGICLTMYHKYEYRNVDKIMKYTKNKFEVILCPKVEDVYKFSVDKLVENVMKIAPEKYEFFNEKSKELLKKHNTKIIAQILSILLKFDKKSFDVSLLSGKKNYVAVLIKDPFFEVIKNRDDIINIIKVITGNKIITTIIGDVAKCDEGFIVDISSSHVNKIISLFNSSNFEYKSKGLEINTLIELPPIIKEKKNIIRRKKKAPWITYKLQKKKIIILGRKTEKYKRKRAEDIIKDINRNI
In words: radiolabelled Pi release, TLC. The test is classed as biochemical. The following applies: M13mp19 ssDNA or total RNA as stimulator; 1.0 mM MgCl2, pH 8.0, 37 °C; labelled compound ([γ-32P]ATP with 1 mM cold ATP).

Test [2] addresses T1, PfPSH2. The test is described as follows: DNA helicase unwinding assay, gel autoradiography. The test is classed as biochemical. The following applies: 32P-labelled partial duplex DNA; dATP in place of ATP; 1.0 mM MgCl2, pH 8.0, 37 °C; 80 nM protein.

Molecules are shown by their SMILES.

On to `Nc1ncnc2c1ncn2[C@@H]1O[C@H](COP(=O)(O)OP(=O)(O)OP(=O)(O)O)[C@@H](O)[C@H]1O` [ATP], for which the “radiolabelled Pi release, TLC” value in test [1] was “PfPSH2 shows concentration-dependent ATPase activity in the presence of DNA”.
Take `Nc1ncnc2c1ncn2[C@H]1C[C@H](O)[C@@H](COP(=O)(O)OP(=O)(O)OP(=O)(O)O)O1` [dATP]: in test [2], the “DNA helicase unwinding assay, gel autoradiography” value was “PfPSH2 prefers ATP and dATP for unwinding the duplex substrate”.

These data come from article PMC6365506, “Plasmodium falciparum specific helicase 2 is a dual, bipolar helicase and is crucial for parasite growth” (Scientific Reports, 2019).
